Square brackets hold non-standard residues; d marks the D form. Peptide text beside a SMILES is read from it. * marks the point of attachment. dPhe(4-NHCONH2) = NC(=O)Nc1ccc(C[C@@H](N)C(=O)O)cc1; Dihydroorotyl(S) = O=C1C[C@@H](C(=O)*)NC(=O)N1; dPhe(4-Cl) = N[C@H](Cc1ccc(Cl)cc1)C(=O)O; Phe(4-NH2) = Nc1ccc(C[C@H](N)C(=O)O)cc1; d2Nal = N[C@H](Cc1ccc2ccccc2c1)C(=O)O; Lys(iPr) = CC(C)NCCCC[C@H](N)C(=O)O; d3Pal = N[C@H](Cc1cccnc1)C(=O)O
Experiments:
luteinizing hormone (LH) = experiment: CS21: serum LH over time; format: in vivo, human
Experimental: Finally, the study evaluated the pharmacokinetics of the degarelix dosing regimens investigated.
(§1) The secondary efficacy endpoints were: the proportion of patients with testosterone surge during the first 2 weeks of treatment; the proportion of patients with testosterone level ≤0.5 ng/mL at day 3; the percentage change in PSA from baseline to day 28; the probability of testosterone ≤0.5 ng/mL from day 56 through day 364; the levels of serum testosterone, LH, FSH and PSA over time through the study; the time to PSA failure, defined as two consecutive increases of 50%, and at least 5 ng/mL as compared to nadir; degarelix concentration over the first month and trough levels at day 308 and 336; the frequency and size of testosterone increases at day 255 and/or 259 compared to the testosterone level at day 252; the quality of life on days 0, 28, 84, 168 and end of study visit; the frequency and intensity of hot flushes experienced (scored daily from study start until end of study visit. In addition, two further secondary endpoints were added: the probability of sufficient testosterone response from day 28 through day 364 (a patient was considered to have insufficient testosterone response if they had one testosterone value >1.0 ng/mL or two consecutive testosterone values >0.5 ng/mL at day 28 onwards); and the percentage change in PSA from baseline to Day 14.

[1] = system: prostate-specific antigen (PSA); experiment: CS21: PSA response and PSA failure; format: in vivo, human; conditions: for Day 14 percentage change in PSA, median / Day 28 percentage change in PSA, median: Day 0 dose degarelix 240@40; for median percentage change (reduction) in PSA from baseline: leuprolide 7.5 mg with anti-androgen flare protection; for median percentage reduction in PSA from baseline: leuprolide 7.5 mg without anti-androgen
Experimental: as §1
All secondary efficacy endpoints were analyzed for both the ITT and PP analysis sets, unless otherwise stated. The proportion of patients with testosterone surge during the first 2 weeks of treatment was analyzed using Fisher's exact test. Fisher's exact test was also used to analyze the proportion of patients with testosterone level ≤0.5 ng/mL at day 3. The percentage change in PSA from baseline to day 28 endpoint was analyzed by a Wilcoxon test.
The secondary endpoints; probability of testosterone ≤0.5 ng/mL from Day 56 through Day 364, time to PSA failure and probability of sufficient testosterone response from Day 28 through Day 364 were analyzed by the Kaplan-Meier method.

[2] = in vivo
Experimental: Laboratory parameters (Table 4) were recorded at screening and during the study.

[3] = CS21: mortality by treatment group; format: in vivo, human
From the text: The death of a patient enrolled in this study was not considered an event per se, but rather an outcome. Any event resulting in a fatal outcome was fully documented and reported, including death, which occurred within the four weeks after treatment end, and regardless of the causality relationship to the IMP.
Mortality Subgroups with Statistically (Pre-Planned as Part of the ISS) Significant Findings

[4] = in vivo; remark: listed apart in the source
Experimental: Body weight was measured at screening and the end of study visit.

[5] = human, in vivo
From the text: Safety data from all clinical trials with degarelix in the treatment of prostate cancer, including patients receiving other dosing regimens, were pooled.

[6] = in vivo; remark: listed apart in the source
Experimental: In this example, a study was conducted to investigate the risk of cardiovascular events when ADT is utilized by a GnRH antagonist versus agonist in patients with or without a history of cardiovascular events.
Specifically, this study utilized available data yielding a safety database of 2328 PCa (prostate cancer) patients who participated in randomized clinical trials and received treatment with either degarelix or a GnRH agonist for up to 12 months (13 treatment months).
The study is based on data from two completed Phase 3 and 4 Phase 3b trials, all of which used an active comparator in form of a GnRH agonist. In each study, the primary inclusion criteria were male subjects ≥8 years of age with histologically confirmed adenocarcinoma of the prostate in whom ADT was indicated and a life expectancy of minimum 12 months could be anticipated. All subjects had serum testosterone levels that were either within the age-specified normal range or above the lower limit of the normal range of the central laboratory and ECOG score ≤2. Exclusion criterion ensured that none of the subjects had received long-term ADT (>6 months) before study entry.
Baseline evaluation included thorough collection of the main demographic characteristics (age, weight, height), lifestyle factors (smoking and drinking habits), and major CV risk factors (treated type 2 diabetes, treated hyperlipidemia, treated hypertension, and systolic and diastolic blood pressure). Patients also underwent physical examination and ECG assessment for potential cardiac morbidities. Medical history of CV events was captured by the following Standardized MedDRA Queries (myocardial infarction, ischemic heart diseases, ischemic stroke, hemorrhagic stroke, other arterial thrombotic/embolic events).
Cardiovascular events of interest were collected prospectively, typically at monthly visits, as adverse events or serious adverse events with date of occurrence. These events were coded using standard MedDRA terms and grouped into one of the same categories as those used to collect medical history.
The CV event rates in agonist and antagonist-treated patients were analyzed by 1-Kaplan-Meier plots of time to first-reported CV events and compared with log-rank test. The analysis was performed separately for strata of patients with or without history of CV events. To identify independent predictors of CV events we applied multivariate Cox proportional hazards models.
To further explore the apparent independent role of treatment choice and identify independent modifiable risk factors, this study established Cox proportional hazard models including CV events occurring during treatment as dependent variable and age, history of CV event, drinking (i.e., high alcohol consumption or abstinence) and smoking habits, hypertension, serum testosterone level and PCa disease stage as independent variables.

[7] = design: species or system human; conditions: in vivo
From the text: Plasma protein binding is estimated to be approximately 90%.

clinical = conditions: human, in vivo, sc
Experimental: Median degarelix trough concentrations in the maintenance phase with 80 mg at a concentration of 20 mg/mL was 10.9 ng/mL.
The long half-life after subcutaneous administration is a consequence of a very slow release of degarelix from the depot formed at the injection site(s). The pharmacokinetic behavior of the drug is strongly influenced by its concentration in the injection formulation.

human CYP450 system = format: in vitro ADME
testosterone = experiment: Example 2: serum testosterone (LC-MS/MS); format: in vivo, human; conditions: from Day 28 (Month 1)
Experimental: Serum testosterone was typically measured at baseline and then monthly in all cases. Serum testosterone was measured at a central laboratory using a validated liquid chromatography system with a tandem mass spectrometry assay with a lower limit of quantitation of 3 ng/dl.

[8] = age <65, degarelix 240@40/80@20, LUPRON DEPOT 7.5 mg
[9] = age >=75, degarelix 240@40/80@20, LUPRON DEPOT 7.5 mg
[10] = degarelix 240/80 mg, leuprolide 7.5 mg

In the case of `CC(=O)N[C@H](Cc1ccc2ccccc2c1)C(=O)N[C@H](Cc1ccc(Cl)cc1)C(=O)N[C@H](Cc1cccnc1)C(=O)N[C@@H](CO)C(=O)N[C@@H](Cc1ccc(NC(=O)[C@@H]2CC(=O)NC(=O)N2)cc1)C(=O)N[C@H](Cc1ccc(NC(N)=O)cc1)C(=O)N[C@@H](CC(C)C)C(=O)N[C@@H](CCCCNC(C)C)C(=O)N1CCC[C@H]1C(=O)N[C@H](C)C(N)=O` [Degarelix, D-Alaninamide, N-acetyl-3-(2-naphthalenyl)-D-alanyl-4-chloro-D-phenylalanyl-3-(3-pyridinyl)-D-alanyl-L-seryl-4-[[[(4S)-hexahydro-2,6-dioxo-4-pyrimidinyl]carbonyl]amino]-L phenylalanyl-4-[(aminocarbonyl)amino]-D-phenylalanyl-L leucyl-N6-(1-methylethyl)-L-lysyl-L-prolyl] (Ac-[d2Nal][dPhe(4-Cl)][d3Pal]S[Phe(4-NH2)](Dihydroorotyl(S))[dPhe(4-NHCONH2)]L[Lys(iPr)]P[dA]-NH2), the “decrease in median LH from baseline” value (luteinizing hormone (LH); day 1) is reported as “approximately 88%”, the “median LH level” value (luteinizing hormone (LH); day 1) is reported as < 0.7 IU/L and the “Day 14 percentage change in PSA, median” value ([1]; PCA = Localized) is reported as −50.6%. The “Day 28 percentage change in PSA, median” value ([1]; PCA = Localized) was −75.0%, the “Day 14 percentage change in PSA, median” value ([1]; PCA = Metastatic) was −77.9% and the “Day 28 percentage change in PSA, median” value ([1]; PCA = Metastatic) was −89.9%. The “Day 14 percentage change in PSA, median” value ([1]; PCA Locally advanced) was −66.6%, the “Day 28 percentage change in PSA, median” value ([1]; PCA Locally advanced) was −84.1% and the “Probability of no PSA failure” value ([1]; age <65, degarelix 240/160@40) was 71.6%. The “Probability of no PSA failure” value [1, 8] was 85.2%, the “Probability of no PSA failure” value ([1]; age >=75, degarelix 240/160@40) was 94.5% and the “Probability of no PSA failure” value [1, 9] was 96.6%. The “probability of a PSA observation from the pooled degarelix groups being less than one from the leuprolide 7.5 mg group” value ([1]; day 14) was 0.82, the “probability of a PSA observation from the pooled degarelix groups being less than one from the leuprolide 7.5 mg group” value ([1]; day 28) was 0.70 and the “probability of completing the study without experiencing PSA failure” value [1, 10] was 91.2%. For the same compound, the “probability of completing the study without experiencing PSA failure” value ([1]; degarelix 240/160 mg) was ~85.8%, the “changes in liver function” value [2] was “no evidence of any clinically significant changes in liver function” and the “Crude Mortality” value ([3]; Age >=65-<75) was “(2%)”. For the same compound, the “Mortality per 1,000 PY, estimate” value ([3]; Age >=65-<75) was 20.2 per 1,000 PY, the “No. of Deaths” value ([3]; Age >=65-<75) was 3 and the “Crude Mortality” value ([3]; PCA = Localized) was “(0%)”. For the same compound, the “Mortality per 1,000 PY, estimate” value ([3]; PCA = Localized) was 0 per 1,000 PY, the “No. of Deaths” value ([3]; PCA = Localized) was 0 and the “markedly abnormal increases in weight of ≥7% from baseline, % of patients” value [4] was 10%. The “drug-related erectile dysfunction, gynaecomastia, hyperhidrosis, testicular atrophy, diarrhea: % of patients” value [5] was ≥ 1%, the “Any CV adverse event, % (adverse events E)” value [6] was 6.0% and the “Any CV adverse event, % of patients with adverse events” value [6] was 2.9%. For the same compound, the “Any CV adverse event, E = Number of adverse events” value [6] was 90, the “Any CV adverse event, N = Number of patients with adverse events” value [6] was 44 and the “HR for CV event, degarelix versus the agonist” value [6] was 0.62. The “HR for CV event, degarelix vs agonist” value [6] was 0.49, the “Hemorrhagic stroke, % (adverse events E)” value [6] was 0.2% and the “Hemorrhagic stroke, % of patients with adverse events” value [6] was 0.2%. For the same compound, the “Hemorrhagic stroke, E = Number of adverse events” value [6] was 3, the “Hemorrhagic stroke, N = Number of patients with adverse events” value [6] was 3 and the “Ischemic heart disease, % (adverse events E)” value [6] was 1.8%. The “Ischemic heart disease, % of patients with adverse events” value [6] was 1.7%, the “Ischemic heart disease, E = Number of adverse events” value [6] was 27 and the “Ischemic heart disease, N = Number of patients with adverse events” value [6] was 25. For the same compound, the “Ischemic stroke, % (adverse events E)” value [6] was 1.1%, the “Ischemic stroke, % of patients with adverse events” value [6] was 0.9% and the “Ischemic stroke, E = Number of adverse events” value [6] was 16. The “Ischemic stroke, N = Number of patients with adverse events” value [6] was 14, the “Myocardial infarction, % (adverse events E)” value [6] was 1.0% and the “Myocardial infarction, % of patients with adverse events” value [6] was 0.8%. The “Myocardial infarction, E = Number of adverse events” value [6] was 15, the “Myocardial infarction, N = Number of patients with adverse events” value [6] was 13 and the “Other embolic or thrombotic events, arterial, % (adverse events E)” value [6] was 1.9%. For the same compound, the “Other embolic or thrombotic events, arterial, % of patients with adverse events” value [6] was 1.5%, the “Other embolic or thrombotic events, arterial, E = Number of adverse events” value [6] was 29 and the “Other embolic or thrombotic events, arterial, N = Number of patients with adverse events” value [6] was 23. For the same compound, the “risk of a CV event lower if taking degarelix versus the agonist” value [6] was 38%, the distribution volume [7] was “approximately 1 L/kg” and the “fraction excreted via the hepato-biliary system” value [7] was “approximately 80%”. The “fraction of dose renally excreted” value [7] was “approximately 20%”, the “metabolites in plasma samples” value (clinical) was “No significant metabolites were detected” and the “Median degarelix trough concentration” value (clinical; male, 80 mg) was 10.9 ng/mL. For the same compound, the AUC (clinical; male, 240 mg) was 29800 ng·h/mL, the “substrate for the human CYP450 system” value (human CYP450 system) was “not a substrate for the human CYP450 system” and the median testosterone level (testosterone) was < 0.5 ng/mL.

For `CCNC(=O)[C@@H]1CCCN1C(=O)[C@H](CCCNC(=N)N)NC(=O)[C@H](CC(C)C)NC(=O)[C@@H](CC(C)C)NC(=O)[C@H](Cc1ccc(O)cc1)NC(=O)[C@H](CO)NC(=O)[C@H](Cc1c[nH]c2ccccc12)NC(=O)[C@H](Cc1c[nH]cn1)NC(=O)[C@@H]1CCC(=O)N1` [Leuprolide, leuprolide, reference compound], the “median LH level” value (luteinizing hormone (LH); by day 56 until day 364) was 0.035 IU/L, the “median LH level” value (luteinizing hormone (LH); day 1) was 31.0 IU/L and the “increase in median LH from baseline” value (luteinizing hormone (LH); day 1, leuprolide 7.5 mg) was > 400%. The “Day 14 percentage change in PSA, median” value ([1]; PCA = Localized) was −13.2%, the “Day 28 percentage change in PSA, median” value ([1]; PCA = Localized) was −55.7% and the “Day 14 percentage change in PSA, median” value ([1]; PCA = Metastatic) was −25.3%. The “Day 28 percentage change in PSA, median” value ([1]; PCA = Metastatic) was −79.7%, the “Day 14 percentage change in PSA, median” value ([1]; PCA Locally advanced) was −21.3% and the “Day 28 percentage change in PSA, median” value ([1]; PCA Locally advanced) was −73.2%. The “Probability of no PSA failure” value [1, 8] was 68.2%, the “Probability of no PSA failure” value [1, 9] was 86.8% and the “median percentage change (reduction) in PSA from baseline” value ([1]; day 14) was 61.7%. The “median percentage reduction in PSA from baseline” value ([1]; day 14) was 15.3%, the “median percentage change (reduction) in PSA from baseline” value ([1]; day 28) was 89.1% and the “median percentage reduction in PSA from baseline” value ([1]; day 28) was 61.7%. For the same compound, the “probability of completing the study without experiencing PSA failure” value [1, 10] was ~85.8%, the “Crude Mortality” value ([3]; Age >=65-<75) was “(8%)” and the “Mortality per 1,000 PY, estimate” value ([3]; Age >=65-<75) was 99.0 per 1,000 PY. The “No. of Deaths” value ([3]; Age >=65-<75) was 6, the “Crude Mortality” value ([3]; PCA = Localized) was “(6%)” and the “Mortality per 1,000 PY, estimate” value ([3]; PCA = Localized) was 70.3 per 1,000 PY. For the same compound, the “No. of Deaths” value ([3]; PCA = Localized) was 4 and the “markedly abnormal increases in weight of ≥7% from baseline, % of patients” value [4] was 13%.

Source: US11766468B2, “Method of treating prostate cancer with GnRH antagonist” (priority 2012, dated 2023)
